According to US20220008391A1, “NOVEL COMPOUNDS FOR CONTROLLING ARTHROPODS” (Bayer Animal Health GmbH, priority 2018, published 2022):
In brackets after ≈: the same amount, converted by molar mass.

assay: Measurement of solubility in buffer at pH 6.5; format: physicochemical; conditions: aqueous buffer, kinetic from dmso stock; PBS buffer pH 6.5, shaken 24h at rt, LC-MSMS; read-out: Solubility of example compounds at pH 6.5
Procedure: Measurement of Solubility in Buffer at pH 6.5 2-4 mg of the test compound are dissolved in DMSO to reach a concentration of 50 g/L (solution A). To 10 μl of this solution 960 μl PBS buffer pH 6.5 are added (final concentration: 515 μg/1); the mixture is shaken for 24h at rt in a 96 well plate. An aliquot is centrifuged at 42000 rpm für 30 min. The supernatant is diluted with acetonitrile/water (8:2) 1:10 and 1:1000 resp. This diluted samples are analyzed by LC-MSMS. Calibration: 10 μl of solution A are diluted with 823 μl DMSO (final concentration: 600 μg/ml), which is further diluted with acetonitrile/water 8:2 by a factor of 100 (provides solution B). The calibration curve is obtained from solution B by further diluting with acetonitrile/water 8:2 with target concentrations of 1.2-12-60-600 ng/ml and injecting these four solutions for MS measurement. PBS-Puffer: 6.18 g sodium chloride and 3.96 g sodium dihydrogen phosphate are dissolved in 1 L aqua dist., the pH is adjusted to 6.5 with 1N sodium hydroxide. The following conditions were used for quantification: Autosampler without auto inject ahead setting, column: Waters OASIS HLB, 2,1×20 mm, 25μ, column temperature: 30° C., flow rate: 2.5 mL/min, injected volume: 2 μl, Splitter (before MS) 1:20.

Structure (SMILES)	solubility at 24 h [µg/mL]
N#CC1(N(COC(=O)O[C@H]2CCC[C@H]2OC(=O)/C=C/C(=O)O)C(=O)c2cc(-c3cnn(-c4c(Cl)cc(C(F)(C(F)(F)F)C(F)(F)F)cc4OC(F)(F)F)c3)ccc2Cl)CC1 (relative stereo) [Example 6, (2E)-4-({(rel 1R,2S)-2-[({[(2-chloro-5-{1-[2-chloro-4-(1,1,1,2,3,3,3-heptafluoropropan-2-yl)-6-(trifluoromethoxy)phenyl]-1H-pyrazol-4-yl}benzoyl)(1-cyanocyclopropyl)amino]methoxy}carbonyl)oxy]cyclopentyl}oxy)-4-oxobut-2-enoic Acid]	4 (≈ 4.42 µM)
N#CC1(N(COC(=O)O[C@H]2CCC[C@H]2OC(=O)CCC(=O)O)C(=O)c2cc(-c3cnn(-c4c(Cl)cc(C(F)(C(F)(F)F)C(F)(F)F)cc4OC(F)(F)F)c3)ccc2Cl)CC1 (relative stereo) [Example 7, 4-({(rel 1R,2S)-2-[({[(2-chloro-5-{1-[2-chloro-4-(1,1,1,2,3,3,3-heptafluoropropan-2-yl)-6-(trifluoromethoxy)phenyl]-1H-pyrazol-4-yl}benzoyl)(1-cyanocyclopropyl)amino]methoxy}carbonyl)oxy]cyclopentyl}oxy)-4-oxobutanoic Acid]	3 (≈ 3.31 µM)
N#CC1(N(COC(=O)OCCOC(=O)CCC(=O)O)C(=O)c2cc(-c3cnn(-c4c(Cl)cc(C(F)(C(F)(F)F)C(F)(F)F)cc4OC(F)(F)F)c3)ccc2Cl)CC1 [Example 3, 1-(2-Chloro-5-{1-[2-chloro-4-(1,1,1,2,3,3,3-heptafluoropropan-2-yl)-6-(trifluoromethoxy)phenyl]-1H-pyrazol-4-yl}phenyl)-2-(1-cyanocyclopropyl)-1,5,10-trioxo-4,6,9-trioxa-2-azatridecan-13-oic Acid]	6 (≈ 6.92 µM)
CC(C)(COC(=O)CCC(=O)O)COC(=O)OCN(C(=O)c1cc(-c2cnn(-c3c(Cl)cc(C(F)(C(F)(F)F)C(F)(F)F)cc3OC(F)(F)F)c2)ccc1Cl)C1(C#N)CC1 [Example 5, 1-(2-Chloro-5-{1-[2-chloro-4-(1,1,1,2,3,3,3-heptafluoropropan-2-yl)-6-(trifluoromethoxy)phenyl]-1H-pyrazol-4-yl}phenyl)-2-(1-cyanocyclopropyl)-8,8-dimethyl-1,5,11-trioxo-4,6,10-trioxa-2-azatetradecan-14-oic Acid]	2 (≈ 2.2 µM)
CC(C)(COCCOC(=O)OCN(C(=O)c1cc(-c2cnn(-c3c(Cl)cc(C(F)(C(F)(F)F)C(F)(F)F)cc3OC(F)(F)F)c2)ccc1Cl)C1(C#N)CC1)C(=O)O [Example 8, 1-(2-chloro-5-{1-[2-chloro-4-(1,1,1,2,3,3,3-heptafluoropropan-2-yl)-6-(trifluoromethoxy)phenyl]-1H-pyrazol-4-yl}phenyl)-2-(1-cyanocyclopropyl)-11,11-dimethyl-1,5-dioxo-4,6,9-trioxa-2-azadodecan-12-oic Acid]	1 (≈ 1.15 µM)
CC(C)(CC(=O)OCCOC(=O)OCN(C(=O)c1cc(-c2cnn(-c3c(Cl)cc(C(F)(C(F)(F)F)C(F)(F)F)cc3OC(F)(F)F)c2)ccc1Cl)C1(C#N)CC1)C(=O)O [Example 9, 1-(2-Chloro-5-{1-[2-chloro-4-(1,1,1,2,3,3,3-heptafluoropropan-2-yl)-6-(trifluoromethoxy)phenyl]-1H-pyrazol-4-yl}phenyl)-2-(1-cyanocyclopropyl)-12,12-dimethyl-1,5,10-trioxo-4,6,9-trioxa-2-azatridecan-13-oic Acid]	5 (≈ 5.58 µM)
N#CC1(N(COC(=O)O[C@H]2CCC[C@@H]2OC(=O)/C=C/C(=O)O)C(=O)c2cc(-c3cnn(-c4c(Cl)cc(C(F)(C(F)(F)F)C(F)(F)F)cc4OC(F)(F)F)c3)ccc2Cl)CC1 [Example 10, (2E)-4-({(1S,2S)-2-[({[(2-chloro-5-{1-[2-chloro-4-(1,1,1,2,3,3,3-heptafluoropropan-2-yl)-6-(trifluoromethoxy)phenyl]-1H-pyrazol-4-yl}benzoyl)(1-cyanocyclopropyl)amino]methoxy}carbonyl)oxy]cyclopentyl}oxy)-4-oxobut-2-enoic Acid]	3 (≈ 3.31 µM)
N#CC1(N(COC(=O)O[C@H]2CCC[C@@H]2OC(=O)CCC(=O)O)C(=O)c2cc(-c3cnn(-c4c(Cl)cc(C(F)(C(F)(F)F)C(F)(F)F)cc4OC(F)(F)F)c3)ccc2Cl)CC1 [Example 11, 4-({(1S,2S)-2-[({[(2-chloro-5-{1-[2-chloro-4-(1,1,1,2,3,3,3-heptafluoropropan-2-yl)-6-(trifluoromethoxy)phenyl]-1H-pyrazol-4-yl}benzoyl)(1-cyanocyclopropyl)amino]methoxy}carbonyl)oxy]cyclopentyl}oxy)-4-oxobutanoic Acid]	2 (≈ 2.2 µM)
N#CC1(N(COC(=O)OCCOC(=O)CCCC(=O)O)C(=O)c2cc(-c3cnn(-c4c(Cl)cc(C(F)(C(F)(F)F)C(F)(F)F)cc4OC(F)(F)F)c3)ccc2Cl)CC1 [Example 12, 1-(2-Chloro-5-{1-[2-chloro-4-(1,1,1,2,3,3,3-heptafluoropropan-2-yl)-6-(trifluoromethoxy)phenyl]-1H-pyrazol-4-yl}phenyl)-2-(1-cyanocyclopropyl)-1,5,10-trioxo-4,6,9-trioxa-2-azatetradecan-14-oic Acid]	3 (≈ 3.4 µM)
N#CC1(N(COC(=O)OCCOC(=O)C2(C(=O)O)CC2)C(=O)c2cc(-c3cnn(-c4c(Cl)cc(C(F)(C(F)(F)F)C(F)(F)F)cc4OC(F)(F)F)c3)ccc2Cl)CC1 [Example 13, 1-[10-(2-Chloro-5-{1-[2-chloro-4-(1,1,1,2,3,3,3-heptafluoropropan-2-yl)-6-(trifluoromethoxy)phenyl]-1H-pyrazol-4-yl}phenyl)-9-(1-cyanocyclopropyl)-6,10-dioxo 2,5,7-trioxa-9-azadecanan-1-oyl]cyclopropane-1-carboxylic Acid]	7 (≈ 7.96 µM)
N#CC1(N(COC(=O)O[C@H]2CC[C@@H](OC(=O)/C=C/C(=O)O)CC2)C(=O)c2cc(-c3cnn(-c4c(Cl)cc(C(F)(C(F)(F)F)C(F)(F)F)cc4OC(F)(F)F)c3)ccc2Cl)CC1 [Example 14, (2E)-4-({cis-4-[({[(2-chloro-5-{1-[2-chloro-4-(1,1,1,2,3,3,3-heptafluoropropan-2-yl)-6-(trifluoromethoxy)phenyl]-1H-pyrazol-4-yl}benzoyl)(1-cyanocyclopropyl)amino]methoxy}carbonyl)oxy]cyclohexyl}oxy)-4-oxobut-2-enoic Acid]	19 (≈ 20.7 µM)
N#CC1(N(COC(=O)O[C@H]2CC[C@@H](OC(=O)CCC(=O)O)CC2)C(=O)c2cc(-c3cnn(-c4c(Cl)cc(C(F)(C(F)(F)F)C(F)(F)F)cc4OC(F)(F)F)c3)ccc2Cl)CC1 [Example 15, 4-({cis-4-[({[(2-chloro-5-{1-[2-chloro-4-(1,1,1,2,3,3,3-heptafluoropropan-2-yl)-6-(trifluoromethoxy)phenyl]-1H-pyrazol-4-yl}benzoyl)(1-cyanocyclopropyl)amino]methoxy}carbonyl)oxy]cyclohexyl}oxy)-4-oxobutanoic Acid]	1 (≈ 1.09 µM)
N#CC1(N(COC(=O)O[C@H]2CC[C@H](OC(=O)/C=C/C(=O)O)CC2)C(=O)c2cc(-c3cnn(-c4c(Cl)cc(C(F)(C(F)(F)F)C(F)(F)F)cc4OC(F)(F)F)c3)ccc2Cl)CC1 [Example 16, (2E)-4-({trans-4-[({[(2-chloro-5-{1-[2-chloro-4-(1,1,1,2,3,3,3-heptafluoropropan-2-yl)-6-(trifluoromethoxy)phenyl]-1H-pyrazol-4-yl}benzoyl)(1-cyanocyclopropyl)amino]methoxy}carbonyl)oxy]cyclohexyl}oxy)-4-oxobut-2-enoic Acid]	2 (≈ 2.18 µM)
N#CC1(N(COC(=O)O[C@H]2CC[C@@H](C(=O)O)CC2)C(=O)c2cc(-c3cnn(-c4c(Cl)cc(C(F)(C(F)(F)F)C(F)(F)F)cc4OC(F)(F)F)c3)ccc2Cl)CC1 [Example 17, Cis-4-[({[(2-Chloro-5-{1-[2-chloro-4-(1,1,1,2,3,3,3-heptafluoropropan-2-yl)-6-(trifluoromethoxy)phenyl]-1H-pyrazol-4-yl}benzoyl)(1-cyanocyclopropyl)amino]methoxy}carbonyl)oxy]cyclohexane-1-carboxylic Acid]	2 (≈ 2.35 µM)
N#CC1(N(COC(=O)O[C@H]2CC[C@H](C(=O)O)CC2)C(=O)c2cc(-c3cnn(-c4c(Cl)cc(C(F)(C(F)(F)F)C(F)(F)F)cc4OC(F)(F)F)c3)ccc2Cl)CC1 [Example 18, Trans-4-[({[(2-chloro-5-{1-[2-chloro-4-(1,1,1,2,3,3,3-heptafluoropropan-2-yl)-6-(trifluoromethoxy)phenyl]-1H-pyrazol-4-yl}benzoyl)(1-cyanocyclopropyl)amino]methoxy}carbonyl)oxy]cyclohexane-1-carboxylic Acid]	3 (≈ 3.53 µM)
N#CC1(N(COC(=O)OCC(=O)O)C(=O)c2cc(-c3cnn(-c4c(Cl)cc(C(F)(C(F)(F)F)C(F)(F)F)cc4OC(F)(F)F)c3)ccc2Cl)CC1 [Example 19, [({[(2-chloro-5-{1-[2-chloro-4-(1,1,1,2,3,3,3-heptafluoropropan-2-yl)-6-(trifluoromethoxy)phenyl]-1H-pyrazol-4-yl}benzoyl)(1-cyanocyclopropyl)amino]methoxy}carbonyl)oxy]acetic Acid]	42 (≈ 53.8 µM)
Cn1nc(C(F)(F)C(F)(F)F)c(C(F)(F)F)c1-n1cc(-c2ccc(Cl)c(C(=O)N(COC(=O)OCCCC(=O)O)C3(C#N)CC3)c2)cn1 [Example 20, 4-[({[{2-Chloro-5-[2′-methyl-5′-(pentafluoroethyl)-4′-(trifluoromethyl)-2′H-[1,3′-bipyrazol]-4-yl]benzoyl}(1-cyanocyclopropyl)amino]methoxy}carbonyl)oxy]butanoic Acid]	212 (≈ 297 µM)
